Results: the NIST ThermoML archive (doi:10.1016/j.fluid.2015.03.049)
± gives the expanded uncertainty stated by the source.

Details: Liquid; for mass density: 101.33 kPa, Vibrating tube method; for Normal boiling temperature: Ebulliometric method (Recirculating still)

SMILES	mass density (303.15 K) [kg/m3]	Normal boiling temperature [°C]	mass density (298.15 K) [kg/m3]	mass density (288.15 K) [kg/m3]
COCOC [dimethoxymethane]	848.59 ± 0.13	42.00 ± 0.2		
COC(=O)OC [dimethyl carbonate]		90.00 ± 0.2	1063.3 ± 0.12	
COC=O [methyl methanoate]		31.50 ± 0.2		980.82 ± 0.11
